These results are taken from ChEMBL document CHEMBL3091315, “PDE2 inhibition: potential for the treatment of cognitive disorders” (Bioorg Med Chem Lett, 2013).

Molecules are shown by their SMILES.

Series [1] deals with T1, cAMP and cAMP-inhibited cGMP 3',5'-cyclic phosphodiesterase 10A (Homo sapiens, UniProt Q9Y233). Description: Inhibition of recombinant PDE10A (unknown origin) expressed in baculovirus infected insect SF-21 cells using [3H]-cAMP as substrate after 30 mins by liquid scintillation counting analysis.
The nature of series [2]: Clearance in iv dosed rat. The class given is ADME, organism-based. The note with it: in vivo.
The nature of series [3]: Half life in iv dosed rat. The note with it: in vivo. In kind it is ADME, organism-based.
Series [4] addresses T2, cGMP-dependent 3',5'-cyclic phosphodiesterase (Homo sapiens, UniProt O00408).
Description: Inhibition of PDE2A (unknown origin) using tritium labeled cAMP as substrate after 1 hr by scintillation proximity assay
Series [5] addresses T1, cAMP and cAMP-inhibited cGMP 3',5'-cyclic phosphodiesterase 10A.
Description: Inhibition of PDE10A (unknown origin) using tritium labeled cAMP as substrate after 1 hr by scintillation proximity assay
The species named for series [6] is Bos taurus. Description: Inhibition of bovine vascular smooth muscle PDE4 using cAMP/cGMP as substrate at 10 uM relative to control. The class given is tissue-based. Particulars: Muscle tissue.
For series [7], the species on record is Bos taurus. Description: Inhibition of bovine vascular smooth muscle PDE3 using cAMP/cGMP as substrate at 10 uM relative to control. In kind it is tissue-based. The note with it: Muscle tissue.
For series [8], the species on record is Homo sapiens. The experiment in a line: Selectivity ratio of IC50 for human PDE10A to IC50 for human PDE2A.
A short description of series [9]: Drug uptake in Wistar rat striatum at 0.03 mg/kg, iv after 5 mins by LC-MS analysis. The class given is ADME, organism-based. On the set-up: dose 0.03 mg/kg, route intravenous. The note with it: read-out: Drug uptake.
In series [10] the target is T2, cGMP-dependent 3',5'-cyclic phosphodiesterase. The class given is cell-based, SF-21.
Description: Inhibition of recombinant PDE2A (unknown origin) expressed in baculovirus infected insect SF-21 cells using [3H]-cAMP as substrate after 30 mins by liquid scintillation counting analysis
Series [11] in a line: Ratio of unbound drug level in brain to plasma in rat. Particulars: brain and plasma (unbound), read-out: K(p,uu,brain).
For series [12], the system named is Cerebellum. The experiment in a line: Biodistribution in cerebellum of rat measured at 10 mins by microPET image analysis. Particulars: in vivo. In kind it is ADME, organism-based.
The subject of series [13] is Cerebellum. The experiment in a line: Biodistribution in cerebellum of rat measured at 2 mins by microPET image analysis. The note with it: in vivo. In kind it is ADME, organism-based.
Series [14] has as its system Cerebrum. The experiment in a line: Biodistribution in cerebrum of rat measured at 10 mins by microPET image analysis. In kind it is ADME, organism-based. The note with it: in vivo.
Series [15] relates to Cerebrum. Description: Biodistribution in cerebrum of rat measured at 2 mins by microPET image analysis. The class given is ADME, organism-based. The note with it: in vivo.
Series [16] is filed under the species Homo sapiens. Description: Selectivity ratio of IC50 for PDE7B (unknown origin) to IC50 for full length recombinant human PDE2A. The note with it: tested as the 18F-labelled form.
The species entered for series [17] is Homo sapiens. Description: Selectivity ratio of IC50 for PDE11 (unknown origin) to IC50 for full length recombinant human PDE2A. Particulars: tested as the 18F-labelled form.
For series [18], the species on record is Homo sapiens. Description: Selectivity ratio of IC50 for PDE3A (unknown origin) to IC50 for full length recombinant human PDE2A. The note with it: tested as the 18F-labelled form.
The species entered for series [19] is Homo sapiens. The experiment in a line: Selectivity ratio of IC50 for PDE5A (unknown origin) to IC50 for full length recombinant human PDE2A. The note with it: tested as the 18F-labelled form.
For series [20], the species on record is Homo sapiens. Description: Selectivity ratio of IC50 for PDE1B (unknown origin) to IC50 for full length recombinant human PDE2A. The note with it: tested as the 18F-labelled form.
For series [21], the species on record is Homo sapiens. Description: Selectivity ratio of IC50 for PDE4D (unknown origin) to IC50 for full length recombinant human PDE2A. Particulars: tested as the 18F-labelled form.
The species entered for series [22] is Homo sapiens. Description: Selectivity ratio of IC50 for PDE9A (unknown origin) to IC50 for full length recombinant human PDE2A. Particulars: tested as the 18F-labelled form.
Series [23] is filed under the species Homo sapiens. Description: Selectivity ratio of IC50 for PDE6A (unknown origin) to IC50 for full length recombinant human PDE2A. The note with it: tested as the 18F-labelled form.
The species named for series [24] is Homo sapiens. Description: Selectivity ratio of IC50 for PDE8B (unknown origin) to IC50 for full length recombinant human PDE2A. The note with it: tested as the 18F-labelled form.
Series [25] can be described thus: Selectivity ratio of IC50 for porcine/bovine PDE1C to IC50 for porcine/bovine heart myocardium PDE2. In kind it is tissue-based.
The nature of series [26]: Inhibition of pig/bovine heart myocardium PDE2 after 15 mins by scintillation proximity assay in presence of [3H]-cAMP. The class given is tissue-based.
Series [27] in a line: Selectivity ratio of IC50 for PDE (unknown origin) to IC50 for porcine/bovine heart myocardium PDE2. In kind it is tissue-based.

T2 sequence (O00408 whole entry): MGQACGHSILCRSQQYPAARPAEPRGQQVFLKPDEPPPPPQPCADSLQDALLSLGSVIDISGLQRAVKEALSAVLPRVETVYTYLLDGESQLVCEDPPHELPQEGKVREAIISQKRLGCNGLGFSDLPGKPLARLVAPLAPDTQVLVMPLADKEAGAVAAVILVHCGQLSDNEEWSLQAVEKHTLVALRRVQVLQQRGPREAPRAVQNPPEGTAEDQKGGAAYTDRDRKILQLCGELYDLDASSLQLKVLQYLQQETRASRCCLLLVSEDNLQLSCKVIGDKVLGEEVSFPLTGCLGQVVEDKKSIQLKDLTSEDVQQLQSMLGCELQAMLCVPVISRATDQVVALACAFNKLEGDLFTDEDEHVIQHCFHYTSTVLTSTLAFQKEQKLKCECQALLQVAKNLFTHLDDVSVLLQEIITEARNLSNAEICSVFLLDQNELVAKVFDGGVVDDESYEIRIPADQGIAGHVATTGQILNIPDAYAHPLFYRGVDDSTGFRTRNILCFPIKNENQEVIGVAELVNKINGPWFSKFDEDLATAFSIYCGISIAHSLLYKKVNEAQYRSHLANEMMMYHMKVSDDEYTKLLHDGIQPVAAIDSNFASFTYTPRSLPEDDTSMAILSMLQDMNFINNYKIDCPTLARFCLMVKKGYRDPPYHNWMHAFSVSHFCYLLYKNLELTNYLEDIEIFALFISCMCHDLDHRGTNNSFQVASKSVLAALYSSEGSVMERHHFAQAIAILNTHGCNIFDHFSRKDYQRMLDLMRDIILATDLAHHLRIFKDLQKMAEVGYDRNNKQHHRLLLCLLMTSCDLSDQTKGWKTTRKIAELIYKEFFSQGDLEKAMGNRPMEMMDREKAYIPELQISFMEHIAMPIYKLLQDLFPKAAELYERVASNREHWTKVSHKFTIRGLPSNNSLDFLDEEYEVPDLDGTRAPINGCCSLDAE
T1 sequence (Q9Y233 whole entry): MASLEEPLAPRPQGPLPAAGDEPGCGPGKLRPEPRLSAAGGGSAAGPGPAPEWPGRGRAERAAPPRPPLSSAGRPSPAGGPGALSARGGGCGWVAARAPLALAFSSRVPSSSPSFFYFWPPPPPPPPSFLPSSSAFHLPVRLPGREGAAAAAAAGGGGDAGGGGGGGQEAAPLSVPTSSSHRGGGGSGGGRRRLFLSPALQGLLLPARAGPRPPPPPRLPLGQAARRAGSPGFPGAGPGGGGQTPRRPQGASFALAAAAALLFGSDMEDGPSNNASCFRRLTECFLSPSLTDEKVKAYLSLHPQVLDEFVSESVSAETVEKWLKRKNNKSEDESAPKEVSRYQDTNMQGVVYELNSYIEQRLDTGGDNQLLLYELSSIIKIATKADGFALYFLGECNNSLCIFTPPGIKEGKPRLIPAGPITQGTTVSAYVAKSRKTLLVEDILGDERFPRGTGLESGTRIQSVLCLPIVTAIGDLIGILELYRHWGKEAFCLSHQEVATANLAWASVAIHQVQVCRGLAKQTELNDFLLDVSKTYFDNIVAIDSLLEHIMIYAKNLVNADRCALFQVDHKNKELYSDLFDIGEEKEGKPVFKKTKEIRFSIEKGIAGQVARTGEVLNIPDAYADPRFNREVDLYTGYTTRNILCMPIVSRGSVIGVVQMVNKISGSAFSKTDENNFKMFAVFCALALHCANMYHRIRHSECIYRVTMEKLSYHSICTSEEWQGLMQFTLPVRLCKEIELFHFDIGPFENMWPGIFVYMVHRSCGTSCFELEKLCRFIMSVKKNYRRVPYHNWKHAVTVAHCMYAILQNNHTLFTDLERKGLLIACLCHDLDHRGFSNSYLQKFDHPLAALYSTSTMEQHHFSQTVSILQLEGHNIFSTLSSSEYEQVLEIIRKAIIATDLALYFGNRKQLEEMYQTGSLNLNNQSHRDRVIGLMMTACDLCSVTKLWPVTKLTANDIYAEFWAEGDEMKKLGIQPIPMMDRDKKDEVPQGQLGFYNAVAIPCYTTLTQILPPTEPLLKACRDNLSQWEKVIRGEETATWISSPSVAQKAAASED

Regarding `Cc1ccc2nc(C)c3nnc(-c4cc(OCCCC(F)(F)F)ccc4Cl)n3c2c1`, the IC50 in series [1] was greater than 1000 nM.

In series [2], `CCC(CC)c1nn(CCO)c2c1N=C(c1ccc(-n3ccnc3C)cc1)CNC2=O` showed a clearance of 70 mL/min/kg. In series [3], this compound gave a half-life of 30 min.

As for `COc1cccc2nc(C)c3nnc(-c4ccccc4Cl)n3c12`, the IC50 in series [4] was found to be 6 nM; in [5] it was 9 nM.

Regarding `COc1cc2c(cc1-c1ccccc1)C(c1cccc(C(N)=O)c1)=NCC(=O)N2C`, the inhibition in the series listed under Bos taurus [6] is 14%; in the series filed under Bos taurus [7], 23%.

With `Cc1nc2ccc(CN3CCOCC3)cc2n2c(-c3ccccc3Cl)nnc12`, in the series filed under Homo sapiens [8], the Ratio IC50 is greater than 600. The concentration at 5 min in series [9] stood at 70 ng/g.

The compound `COc1ncc(-c2cc(C3=Nc4c(C(C)(C)C)nn(CCO)c4C(=O)NC3)ccc2OC)cn1` had a clearance in series [2] of 27 mL/min/kg. Further, in series [3], the half-life is 90 min.

For `COc1ccc2nnc3c(C)nc(-c4ccccc4Cl)n3c2n1`, the IC50 in series [10] was found to be 4 nM.

On to `Cc1nc(-c2cnn(C)c2-c2ccc(C(F)(F)F)cn2)c2c(N3CCC3)ncnn12` [PF-05180999], for which the Kp uu in series [11] is 0.5.

Turning to `Cc1nc2ccc(CN3CCOCC3)cc2n2c(-c3c([18F])cccc3Cl)nnc12`, the Drug uptake was found to be 82% in the series with Cerebellum [12], 96% in the series with Cerebellum [13], 92% in the series on Cerebrum [14] and 96% in the series on Cerebrum [15].

On to `Cc1nc(-c2cnn(C)c2-c2ccc(C(F)(F)F)cc2)c2c(N3CC(F)C3)ncnn12`, for which the Ratio IC50 in the series listed under Homo sapiens [16], in the series filed under Homo sapiens [17], in the series listed under Homo sapiens [18], in the series filed under Homo sapiens [19], in the series listed under Homo sapiens [20] and in the series listed under Homo sapiens [21] was greater than 20000 each time. Moreover, the Ratio IC50 in the series listed under Homo sapiens [22], in the series filed under Homo sapiens [23] and in the series listed under Homo sapiens [24] was greater than 20000 in each case.

With `COc1ccc(Cc2nc(O)c3c(C)nc([C@@H](CCCc4ccccc4)[C@@H](C)O)n3n2)cc1OC`, the Ratio IC50 in series [25] is 50; in series [27], greater than 100. The IC50 in series [26] was 2 nM.
